Reference: PMC11510023, “A Novel Cold-Adapted Nitronate Monooxygenase from Psychrobacter sp. ANT206: Identification, Characterization and Degradation of 2-Nitropropane at Low Temperature” (Microorganisms, 2024)

Tested on: T1, rPsNMO
T1 construct: gene psnmo; N-terminal His-tag, pET28a(+), E. coli BL21(DE3)
Assay: nitrite release, colorimetric at […] nm; Lineweaver-Burk
Assay type: biochemical, Psychrobacter sp. ANT206
Conditions: 30 °C, pH 7.5 potassium phosphate, 6-12 mM 2-NP; substrate pre-equilibrated 24 h with equal KOH to give the anionic form (propane-2-nitronate)

2-NP was tested, and the Km was 10.3 mM.
